Measurements published in patent US20100074934A1, “MEDICAL IMPLANTS WITH A COMBINATION OF COMPOUNDS” (priority 2006, published 2010).

Tested on: chick chorioallantoic membrane (CAM)
Assay: chick chorioallantoic membrane (CAM) assay, inhibition of angiogenesis
Format: in vivo
Design: key: 0: normal vascularity; 1: lacking some microvascular movement; small avascular zone approximately 2 mm in diameter; 3: avascularity extending beyond the disk (6 mm in diameter)
Details: 2 day exposure
Method: Paclitaxel, dipyridamole, and a combination of paclitaxel and dipyridimole were tested in a chick chorioallantoic membrane (CAM) assay (A. Cevik Tufan and N. Lalae Satirglu-Tufanm Current Cancer Drug Targets, 2005, 5: 249-266) to measure inhibition of angiogenesis by the compounds.
Fertilized, domestic chick embryos were incubated for 4 days prior to shell-less culturing. In this procedure, the egg contents were emptied by cracking the shell, and allowing the contents of the egg to gently slide out. The egg contents were emptied into sterilized petri dishes and then covered with petri dish covers. These were then placed into an incubator at 37 degrees and 90% relative humidity for 4 days.
Paclitaxel (Hauser Lot 1492-16199A) was fixed at concentrations of 0.3 μg and 1 μg per 10 ul aliquot of 0.5% aqueous methylcellulose (disc). Dipyridamole (Aldrich 285676, Lot 064K157) was added to each fixed dose of paclitaxel at specific molar ratios of 1:3, 1:10, 1:1, 3:1, 10:1. Neat solvent (DMSO), paclitaxel at 0.3 μg and 1 μg per disc and the dipyridamole at 5.92 μg per disc were used as the individual controls. Ten microliter aliquots of this solution were dried on parafilm for 3 hours forming disks 2 mm in diameter. The dried disks containing the combination ratios and controls were then carefully placed at the growing edge of each CAM at day 7 of incubation. After a 2 day exposure ([…]) the vasculature was examined with the aid of a stereomicroscope. Liposyn II, a white opaque solution, was injected into the CAM to increase the visibility of the vascular details.
This imaging setup was used at a magnification of 160× which permitted the direct visualization of blood cells within the capillaries; thereby blood flow in areas of interest may be easily assessed and recorded. For this study, the inhibition of angiogenesis was defined as an area of the CAM (measuring 2-6 mm in diameter) lacking a capillary network and vascular blood flow. Throughout the experiments, avascular zones were assessed on a 4 point avascular gradient (Table 1). This scale represents the degree of overall inhibition with maximal inhibition represented as a 3 on the avascular gradient scale.

Row | SMILES | Score (avascular gradient scale) (dipyridamole 0.02 μg/10 μL disc alone) | Score (avascular gradient scale) (dipyridamole 0.06 μg/10 μL disc alone) | Score (avascular gradient scale) (dipyridamole 5.92 μg/10 μL disc alone) | Score (avascular gradient scale) (paclitaxel 1 μg/10 μL disc alone)
1 | OCCN(CCO)c1nc(N2CCCCC2)c2nc(N(CCO)CCO)nc(N3CCCCC3)c2n1 [Dipyridamole (control), 2,6-bis(diethanolamino)-4,8-dipiperidinopyrimido(5,4-d) pyrimidine] | 0 | 0 | 0 | 
2 | CC(=O)O[C@H]1C(=O)[C@@]2(C)[C@H]([C@H](OC(=O)c3ccccc3)[C@]3(O)C[C@H](OC(=O)[C@H](O)[C@@H](NC(=O)c4ccccc4)c4ccccc4)C(C)=C1C3(C)C)[C@]1(OC(C)=O)CO[C@@H]1C[C@@H]2O [Paclitaxel (control), paclitaxel] |  |  |  | 2
